From patent US20090175799A1, “COLORED OR COLORABLE TOPICAL COMPOSITION FOAM” (priority 2006, published 2009)

Text: In one or more embodiments, the foamable composition includes a potent solvent, in addition to or in place of one of the hydrophobic solvents, polar solvents or emollients of the composition. A potent solvent is a solvent other than mineral oil that solubilizes a specific active agent substantially better than a hydrocarbon solvent such as mineral oil or petrolatum.

solubility in glycofurol	solubility in mineral oil [%]	solubility in dimethyl isosorbide	solubility in propylene glycol	solubility in polyethylene glycol 400 (PEG 400)	Structure (SMILES)
–	< 0.01	more than 1%	–	–	Cc1ncc([N+](=O)[O-])n1CCO [Metronidazole]
more than 1%	< 0.01	more than 1%	more than 1%	more than 1%	C/C(=C\C(=O)OCCCCCCCCC(=O)O)C[C@@H]1OC[C@H](C[C@@H]2O[C@H]2[C@@H](C)[C@H](C)O)[C@@H](O)[C@H]1O [Mupirocin]
–	< 0.001	–	–	–	CC(=O)[C@H]1CC[C@H]2[C@@H]3CCC4=CC(=O)CC[C@]4(C)[C@H]3CC[C@]12C [Progesterone]

The next lines start with the compound.

Structure (SMILES)	solubility in glycofurol	solubility in mineral oil [%]	solubility in dimethyl isosorbide	solubility in propylene glycol	solubility in polyethylene glycol 400 (PEG 400)
CCCCC(=O)O[C@]1(C(=O)CO)[C@@H](C)C[C@H]2[C@@H]3CCC4=CC(=O)C=C[C@]4(C)[C@@]3(F)[C@@H](O)C[C@@]21C [Betamethasone valerate]	more than 1%	< 0.01	–	–	–
CCCC(=O)O[C@]1(C(=O)CO)CC[C@H]2[C@@H]3CCC4=CC(=O)CC[C@]4(C)[C@H]3[C@@H](O)C[C@@]21C [Hydrocortisone butyrate]	more than 1%	< 0.01	–	–	–
CC(=O)N1CCN(c2ccc(OCC3COC(Cn4ccnc4)(c4ccc(Cl)cc4Cl)O3)cc2)CC1 (centres unmarked) [Ketoconazole]	more than 1%	< 0.01	more than 1%	more than 1%	–
Cc1cnc(NC(=O)C2=C(O)c3ccccc3S(=O)(=O)N2C)s1 [Meloxicam]	–	< 0.001	–	–	–
